These results are taken from US8673957B2, “Fluorescent probe” (Tetsuo Nagano, priority 2003, dated 2014).

Data set [1] in a line: Fluorescence spectrum: fluorescence characteristics and quantum yield. In kind it is physicochemical. The following applies: 0.1 M sodium phosphate buffer (pH 7.4), 20° C. The method, then: The fluorescence characteristics of Compound (7) and Compound (8) were measured. The quantum yield was measured by using F-4500 (Hitachi), and the other spectra were measured by using LS50B (Perkin Elmer). The measurement was performed at 20° C. for a solution of a sample dissolved in 0.1 M sodium phosphate buffer (pH 7.4) using dimethyl sulfoxide of less than 0.2% as a cosolvent. The quantum yield was calculated relative to that of fluorescein, which was 0.85 in aqueous 0.1 M NaOH. When similar quantum yield measurements were performed for a compound of the formula (I) wherein R^6 and R^9 were hydrogen atoms (p-DAMBO) and a compound of the formula (II) wherein R^16 and R^19 were hydrogen atoms (p-DAMBO-T) as controls, the quantum yields were 0.001 and 0.40, respectively.

A short description of data set [2]: Effect of pH on the fluorescence intensity. The data set is classed as physicochemical. The following applies: 0.1 M sodium phosphate buffer, 0.1% DMSO, pH range of from 3 to 13. How it is done: Compounds (7) and (8) were dissolved in 0.1 M sodium phosphate buffer (cosolvents 0.1% DMSO) adjusted to various pH values, and fluorescence was measured in the same manner as those in the aforementioned (b). […] Therefore, according to the measurement of nitrogen monoxide by using the compound of the present invention, extremely high accuracy of the measurement is achieved for a biosample with pH fluctuation.

The nature of data set [3]: Reaction with nitrogen monoxide (NOC 13 as nitrogen monoxide generating agent), excitation/fluorescence spectra and HPLC. To be noted: 1 hour, 0.1 M sodium phosphate buffer (pH 7.4). The method, then: NOC 13, which is a nitrogen monoxide generating agent, was added to Compound (7), and changes of excitation and fluorescence emission spectra were measured. The compound (7) at 5 μM (cosolvent: 0.1% DMSO) and NOC 13 were incubated at 37° C. for 1 hour in 0.1 M sodium phosphate buffer (pH 7.4), and then excitation and fluorescence spectra were measured. The measurement was performed with slit widths of Ex/Em=2.5/2.5 nm, excitation wavelength of 520 nm, and emission wavelength of 535 nm.

[4] abbreviates: DMSO less than 0.2% as cosolvent.

On to `CC1=C(CCC(=O)O)C(C)=[N+]2C1=C(c1ccc3[nH]nnc3c1)c1c(C)c(CCC(=O)O)c(C)n1[B-]2(F)F` [Compound (8), 8-(5-Benzotriazolyl)-2,6-bis(2-carboxyethyl)-4,4-difluoro-1,3,5,7-tetramethyl-4-bora-3a,4a-diaza-s-indacene], for which, in data set [1] (setting [4]), the Emission maximum turned out to be 537 nm, the Extinction coefficient amounted to 56000 M⁻¹ cm⁻¹ and the Extinction maximum is recorded as 521 nm. In data set [1] (relative to fluorescein (0.85 in aqueous 0.1 M NaOH)), the Relative quantum yield is listed as 0.74. Besides, in data set [2], the “change in fluorescence intensity with pH” value is reported as “Almost no change in the fluorescence intensity”.

Consider `CC1=C(CCC(=O)O)C(C)=[N+]2C1=C(c1ccc(N)c(N)c1)c1c(C)c(CCC(=O)O)c(C)n1[B-]2(F)F` [Compound (7), 8-(3,4-Diaminophenyl)-2,6-bis(2-carboxyethyl)-4,4-difluoro-1,3,5,7-tetramethyl-4-bora-3a,4a-diaza-s-indacene], for which the “rate of reaction with nitrogen monoxide (HPLC of product)” value in data set [3] (compound at 5 μM with NOC 13, 37° C.) was “extremely rapid reaction”. For the same compound, in data set [3] (compound at 5 μM, NOC 13 0-5.0 μM, 37° C., Ex 520 nm / Em 535 nm), the “change of fluorescence after addition of NOC 13” value is on record as “Increase of fluorescence depending on the concentration of added NOC 13”.
